Where “and” joins values, the source holds several entries; their conditions need not be identical. Equal entries are not always repeated. Where two headings read alike, the source gives them in different places.
Experiments:
[1] = tested on: cyclin K–eGFP degradation reporter; test: Cyclin K reporter stability analysis (dual-color cyclin K–eGFP reporter); assay type: cell-based, human
In short: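 Cells (HEK293T–Cas9, reporter-expressing) at 1 × 10^6 ml^−1; 5 h compound or DMSO; flow cytometry; gMFI eGFP ÷ mCherry on round mCherry-positive events; normalized to 3 DMSO controls.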

HEK293T cells = test: Drug sensitivity assay (CellTiter-Glo viability) with or without MLN4924 pretreatment; assay type: cell-based, human; conditions: for EC50: Homo sapiens, HEK-293T; for Toxicity rescue: MLN4924-mediated cytotoxicity rescue, 10 µM used where n.d.
In short: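 Luminescent ATP read-out (CellTiter-Glo) after 3 days of drug exposure, normalised to DMSO controls. Cells were HEK293T–Cas9, pretreated with 100 nM MLN4924 or DMSO for 2 h before drug dispensing.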

CDK12–cyclin K and DDB1 = biological target: T1, CDK12–cyclin K and DDB1 (Homo sapiens, UniProt Q16531+Q9NYV4, K965R); test: TR-FRET ternary complex formation assay (compound titration); assay type: binding; conditions: for TR-FRET signal at compound concentration: replicate titrations; for TR-FRET signal at compound concentration 0.468 nM / TR-FRET signal at compound concentration 2.16 nM / TR-FRET signal at compound concentration 3.6 nM / TR-FRET signal at compound concentration 7.92001 nM / TR-FRET signal at compound concentration 15.84 nM / TR-FRET signal at compound concentration 30.96 nM / TR-FRET signal at compound concentration 62.6401 nM / TR-FRET signal at compound concentration 125.28 nM / TR-FRET signal at compound concentration 244.8 nM / TR-FRET signal at compound concentration 993.601 nM / TR-FRET signal at compound concentration 2001.6 nM / TR-FRET signal at compound concentration 4.68 nM / TR-FRET signal at compound concentration 21.6 nM / TR-FRET signal at compound concentration 36 nM / TR-FRET signal at compound concentration 79.2001 nM / TR-FRET signal at compound concentration 158.4 nM / TR-FRET signal at compound concentration 309.6 nM / TR-FRET signal at compound concentration 626.401 nM / TR-FRET signal at compound concentration 1252.8 nM / TR-FRET signal at compound concentration 2448 nM / TR-FRET signal at compound concentration 9936.01 nM / TR-FRET signal at compound concentration 20016 nM: raw titration data
T1 construct: His6–CDK12 (a.a. 713–1,052); full-length or beta-propeller B domain deletion (ΔBPB: a.a. 396–705 deleted) constructs of His6–DDB1ΔBPB, StrepII–Avi–DDB1, or His6–Spy–DDB1; made in house; host or cells: Trichoplusia ni High Five insect cells (baculovirus)
In short: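 TR-FRET ratio 520/490 nm; 70 μs delay before read to suppress background.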

[2] = source data sheet correlations, read-out: DC50
[3] = Supplementary Table 2, HEK293T viability, 72 h, compound alone, read-out: Cellular assays EC50
[4] = compound concentration 0.468 nM
[5] = compound concentration 7.92001 nM
[6] = compound concentration 15.84 nM
[7] = compound concentration 30.96 nM
[8] = compound concentration 62.6401 nM
[9] = compound concentration 125.28 nM
[10] = compound concentration 244.8 nM
[11] = compound concentration 993.601 nM
[12] = compound concentration 2001.6 nM
[13] = in vitro complex formation, 50 nM CDK12–cyclin K, 100 nM DDB1, text and figures, read-out: TR-FRET EC50
[14] = sheet MOESM7, read-out: log TR-FRET EC50 (converted)
[15] = source data sheet correlations, read-out: TR-FRET EC50

T1 sequence (Q9NYV4 713-1052 K965R): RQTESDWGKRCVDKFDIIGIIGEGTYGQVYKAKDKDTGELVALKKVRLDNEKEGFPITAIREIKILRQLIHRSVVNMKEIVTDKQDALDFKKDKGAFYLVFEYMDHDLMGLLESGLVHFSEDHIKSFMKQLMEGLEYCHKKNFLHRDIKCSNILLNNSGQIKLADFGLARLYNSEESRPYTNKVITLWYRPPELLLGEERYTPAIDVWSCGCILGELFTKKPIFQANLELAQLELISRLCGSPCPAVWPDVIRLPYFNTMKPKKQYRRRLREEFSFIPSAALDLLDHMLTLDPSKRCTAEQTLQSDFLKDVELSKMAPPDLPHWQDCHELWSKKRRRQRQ
T1 sequence (O75909 1-267 partner): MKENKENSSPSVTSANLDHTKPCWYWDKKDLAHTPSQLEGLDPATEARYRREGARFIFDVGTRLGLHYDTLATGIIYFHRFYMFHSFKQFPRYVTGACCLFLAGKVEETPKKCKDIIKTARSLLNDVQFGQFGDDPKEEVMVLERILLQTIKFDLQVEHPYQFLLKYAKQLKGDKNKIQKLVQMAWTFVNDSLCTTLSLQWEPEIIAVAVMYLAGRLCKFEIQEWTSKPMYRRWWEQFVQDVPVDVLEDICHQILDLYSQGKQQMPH
T1 sequence (Q16531 whole entry): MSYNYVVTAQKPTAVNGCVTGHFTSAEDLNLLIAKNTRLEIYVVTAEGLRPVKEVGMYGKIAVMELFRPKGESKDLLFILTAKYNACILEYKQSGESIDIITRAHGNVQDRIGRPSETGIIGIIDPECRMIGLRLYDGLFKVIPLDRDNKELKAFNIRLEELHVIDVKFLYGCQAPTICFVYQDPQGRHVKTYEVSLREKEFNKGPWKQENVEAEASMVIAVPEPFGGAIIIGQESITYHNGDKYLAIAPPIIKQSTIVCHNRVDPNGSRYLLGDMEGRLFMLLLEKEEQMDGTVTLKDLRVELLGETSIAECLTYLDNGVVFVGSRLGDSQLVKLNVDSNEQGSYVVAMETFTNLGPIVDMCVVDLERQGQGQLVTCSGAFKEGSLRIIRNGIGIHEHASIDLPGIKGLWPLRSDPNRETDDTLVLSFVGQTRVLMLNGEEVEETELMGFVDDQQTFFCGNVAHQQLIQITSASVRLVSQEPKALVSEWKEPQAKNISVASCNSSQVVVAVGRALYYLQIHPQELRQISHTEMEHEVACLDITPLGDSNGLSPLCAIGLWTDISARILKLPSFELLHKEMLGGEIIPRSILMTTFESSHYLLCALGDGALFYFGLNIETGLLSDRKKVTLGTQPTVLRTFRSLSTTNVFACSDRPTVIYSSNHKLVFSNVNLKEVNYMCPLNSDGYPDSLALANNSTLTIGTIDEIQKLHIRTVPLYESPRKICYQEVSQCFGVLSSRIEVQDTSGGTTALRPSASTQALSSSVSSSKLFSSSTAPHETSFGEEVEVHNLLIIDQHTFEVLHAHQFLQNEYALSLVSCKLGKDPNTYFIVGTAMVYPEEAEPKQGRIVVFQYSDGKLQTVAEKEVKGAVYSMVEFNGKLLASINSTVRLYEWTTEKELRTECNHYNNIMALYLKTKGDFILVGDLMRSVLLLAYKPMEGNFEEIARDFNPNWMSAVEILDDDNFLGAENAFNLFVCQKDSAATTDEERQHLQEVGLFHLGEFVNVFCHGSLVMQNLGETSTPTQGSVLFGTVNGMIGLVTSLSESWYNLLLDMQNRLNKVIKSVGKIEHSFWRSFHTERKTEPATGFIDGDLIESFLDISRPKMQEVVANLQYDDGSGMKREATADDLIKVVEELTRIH

SMILES | DC50 [1, 2] | EC50 (HEK293T cells; [3]) | Toxicity rescue (HEK293T cells; Supplementary Table 2) | EC50 (CDK12–cyclin K and DDB1; [13]) | EC50 (CDK12–cyclin K and DDB1; [14]) | EC50 (CDK12–cyclin K and DDB1; [15]) | TR-FRET signal at compound concentration 0.468 nM (CDK12–cyclin K and DDB1; [4]) | TR-FRET signal at compound concentration 2.16 nM (CDK12–cyclin K and DDB1; compound concentration 2.16 nM) | TR-FRET signal at compound concentration 3.6 nM (CDK12–cyclin K and DDB1; compound concentration 3.6 nM) | TR-FRET signal at compound concentration 7.92001 nM (CDK12–cyclin K and DDB1; [5]) | TR-FRET signal at compound concentration 15.84 nM (CDK12–cyclin K and DDB1; [6]) | TR-FRET signal at compound concentration 30.96 nM (CDK12–cyclin K and DDB1; [7]) | TR-FRET signal at compound concentration 62.6401 nM (CDK12–cyclin K and DDB1; [8]) | TR-FRET signal at compound concentration 125.28 nM (CDK12–cyclin K and DDB1; [9]) | TR-FRET signal at compound concentration 244.8 nM (CDK12–cyclin K and DDB1; [10]) | TR-FRET signal at compound concentration 993.601 nM (CDK12–cyclin K and DDB1; [11]) | TR-FRET signal at compound concentration 2001.6 nM (CDK12–cyclin K and DDB1; [12]) | TR-FRET signal at compound concentration 4.68 nM (CDK12–cyclin K and DDB1) | TR-FRET signal at compound concentration 21.6 nM (CDK12–cyclin K and DDB1) | TR-FRET signal at compound concentration 36 nM (CDK12–cyclin K and DDB1) | further results
CC[C@H](CO)Nc1nc(NCc2ccn(-c3cccc(Cl)c3)n2)c2ncn(C(C)C)c2n1 [DS43] | 0.075 µM | 1.26 µM | 697% | 0.044 ± 0.002 µM | 0.0437 µM | 0.0437 µM | – | – | – | – | – | – | – | – | – | – | – | – | – | – | EC50 (HEK293T cells; Supplementary Fig. 5, HEK293T, CellTiter Glo, 72h, pre-treatment with 100 nM MLN4924, read-out: Viability EC50, with MLN4924): 15.5 µM; % MLN4924 rescue (HEK293T cells; PCA input): 649%; TR-FRET signal at compound concentration (CDK12–cyclin K and DDB1; [4]): 0.2854 and 0.3016; TR-FRET signal at compound concentration (CDK12–cyclin K and DDB1; compound concentration 2.16 nM): 0.3338 and 0.3545; TR-FRET signal at compound concentration (CDK12–cyclin K and DDB1; compound concentration 3.6 nM): 0.4308 and 0.466; TR-FRET signal at compound concentration (CDK12–cyclin K and DDB1; [5]): 0.6201 and 0.666; TR-FRET signal at compound concentration (CDK12–cyclin K and DDB1; [6]): 0.9968 and 1.0413; TR-FRET signal at compound concentration (CDK12–cyclin K and DDB1; [7]): 1.655 and 1.7184; TR-FRET signal at compound concentration (CDK12–cyclin K and DDB1; [8]): 2.415 and 2.607; TR-FRET signal at compound concentration (CDK12–cyclin K and DDB1; [9]): 3.042 and 3.307; TR-FRET signal at compound concentration (CDK12–cyclin K and DDB1; [10]): 3.43 and 3.794; TR-FRET signal at compound concentration (CDK12–cyclin K and DDB1; [11]): 3.717 and 4.015; TR-FRET signal at compound concentration (CDK12–cyclin K and DDB1; [12]): 3.6778 and 3.923
CC[C@H](CO)Nc1nc(NCc2ccc(-c3ccncc3)cc2)c2ncn(C(C)C)c2n1 [DS44] | 0.062 µM | 0.3 µM | 857% | 0.036 ± 0.002 µM | 0.0356 µM | 0.0356 µM | 0.2822 and 0.2969 and 0.203 and 0.2011 | 0.3572 and 0.3626 and 0.2614 and 0.2567 | 0.4873 and 0.5297 and 0.3719 and 0.3575 | 0.7272 and 0.8095 and 0.5738 and 0.5707 | 1.129 and 1.28 and 0.9406 and 0.8919 | 1.72 and 1.9375 and 1.384 and 1.358 | 2.307 and 2.567 and 2.074 and 2.11 | 2.789 and 3.0284 and 2.71 and 2.759 | 3 and 3.3475 and 2.848 and 3.078 | 3.126 and 3.521 and 3.221 and 3.228 | 3.1032 and 3.41 and 3.238 and 3.193 | – | – | – | –
CC[C@H](CO)Nc1nc(NCc2ccc(-c3cccnc3)cc2)c2ncn(C(C)C)c2n1 [DS45] | 0.036 µM | 0.242 µM | 1302% | 0.045 ± 0.002 µM | 0.0451 µM | 0.0451 µM | 0.2618 and 0.2852 | 0.3231 and 0.3368 | 0.3927 and 0.4029 | 0.6005 and 0.5751 | 0.9407 and 0.892 | 1.641 and 1.433 | 2.534 and 2.304 | 3.191 and 3.0985 | 3.469 and 3.534 | 3.64 and 3.842 | 3.5487 and 3.801 | – | – | – | –
CC(C)n1cnc2c(NCc3ccc(-c4ccccn4)cc3)nc(NCc3c(Cl)cncc3Cl)nc21 [DS48] | 0.366 µM | 0.907 µM | 313% | 0.046 ± 0.002 µM | 0.046 µM | 0.046 µM | 0.2749 and 0.2901 | 0.3467 and 0.3488 | 0.4769 and 0.4631 | 0.7379 and 0.6676 | 1.149 and 0.9938 | 1.778 and 1.5795 | 2.574 and 2.417 | 3.287 and 3.206 | 3.511 and 3.701 | 3.896 and 4.02 | 3.877 and 4.06 | – | – | – | –
COc1ccccc1CCNC(=O)CNc1nc(NCc2ccc(-c3ccccn3)cc2)c2ncn(C(C)C)c2n1 [DS50] | 3.57 µM | > 10 µM | 0% | – | 1.92 µM | 1.92 µM | – | – | – | – | – | – | – | – | – | – | – | 0.2095 and 0.2212 | 0.2225 and 0.2323 | 0.253 and 0.2736 | TR-FRET signal at compound concentration 79.2001 nM (CDK12–cyclin K and DDB1): 0.3096 and 0.3199; TR-FRET signal at compound concentration 158.4 nM (CDK12–cyclin K and DDB1): 0.4094 and 0.4186; TR-FRET signal at compound concentration 309.6 nM (CDK12–cyclin K and DDB1): 0.5758 and 0.5879; TR-FRET signal at compound concentration 626.401 nM (CDK12–cyclin K and DDB1): 0.9565 and 0.9048; TR-FRET signal at compound concentration 1252.8 nM (CDK12–cyclin K and DDB1): 1.567 and 1.497; TR-FRET signal at compound concentration 2448 nM (CDK12–cyclin K and DDB1): 2.482 and 2.457; TR-FRET signal at compound concentration 9936.01 nM (CDK12–cyclin K and DDB1): 3.626 and 3.7316; TR-FRET signal at compound concentration 20016 nM (CDK12–cyclin K and DDB1): 3.761 and 3.946
CC(C)n1cnc2c(NCc3ccc(-c4ccccn4)cc3)nc(NCCCCCC(=O)N[C@H]3O[C@H](CO)[C@@H](O)[C@H](O)[C@H]3O)nc21 [DS51] | – | > 10 µM | 0% | 0.275 ± 0.016 µM | 0.274 µM | – | – | – | – | – | – | – | – | – | – | – | – | 0.2297 and 0.2444 | 0.3216 and 0.3313 | 0.5067 and 0.5037 | DC50 ([1]; Supplementary Table 2, HEK293T cycK-eGFP reporter, 5 h, read-out: Cellular assays DC50): > 10 µM; EC50 (CDK12–cyclin K and DDB1; Supplementary Table 2, read-out: TR-FRET EC50 TR-FRET): 0.274 µM; TR-FRET signal at compound concentration 79.2001 nM (CDK12–cyclin K and DDB1): 0.816 and 0.7927; TR-FRET signal at compound concentration 158.4 nM (CDK12–cyclin K and DDB1): 1.255 and 1.244; TR-FRET signal at compound concentration 309.6 nM (CDK12–cyclin K and DDB1): 1.886 and 1.872; TR-FRET signal at compound concentration 626.401 nM (CDK12–cyclin K and DDB1): 2.526 and 2.552; TR-FRET signal at compound concentration 1252.8 nM (CDK12–cyclin K and DDB1): 3.049 and 3.029; TR-FRET signal at compound concentration 2448 nM (CDK12–cyclin K and DDB1): 3.216 and 3.3184; TR-FRET signal at compound concentration 9936.01 nM (CDK12–cyclin K and DDB1): 3.256 and 3.415; TR-FRET signal at compound concentration 20016 nM (CDK12–cyclin K and DDB1): 3.017 and 3.197

Reference: PMC10746543, “Design principles for cyclin K molecular glue degraders” (Nature Chemical Biology, 2023)
